Results reported in patent publication US11827624B2, “Covalent immune recruiter compounds for immune cell recognition and associated uses” (McMaster University, priority 2020, dated 2023).

How the values were obtained:
anti-DNP IgG = test: Modified octet solution labelling kinetics assay with PSMA coated probes; format: binding, rabbit
Experimental: To determine the kinetics of CIR 3 covalent labelling of anti-DNP IgG, a modified octet protocol was developed to accommodate the weaker binding affinity of glutamate urea on CIR 3 for biotinylated PSMA, which was loaded onto streptavidin coated octet probes in these experiments. First, streptavidin probes from ForteBio were placed in wells each containing 250 μl solutions composed of 100 nM biotinylated PSMA in kinetics Buffer (1×) spiked with 1% (v/v) DMSO for 20 minutes in an Octet Red96 instrument. The RPM was 1000, the temperature was held at 30° C., and the acquisition rate was 5 Hz. Following washing and baseline steps described above, the probes were then placed in a solution containing 200 nM CIR 3+100 nM anti-DNP IgG (Ab) that already had been allowed to react for varying amounts of time away from the octet instrument to form CIR 3-Ab, followed by quenching with 1 mM DNP-Glycine competitor to disrupt non covalent complex [CIR 3:Ab]. The association of CIR 3-Ab (already formed in solution) with PSMA coated probe was monitored, and the initial rates and final signal plateau measured as a function of the concentration of CIR 3-Ab formed with incubation time away from the octet instrument in solution. […]

PSMA+HEK cells = test: Two-colour flow cytometry ADCP (CD64) assay with mmAb on PSMA+HEK cells; format: cell-based, human
Text: ADCP flow cytometry experiments were run on a BD LSRII Flow Cytometer. The human IgG isotype control used was purchased from Jackson ImmunoResearch (009-000-003). The human IgG1 monoclonal anti-DNP antibody (mAb) was purchased from acrobiosystems (DNP-M2). PSMA expression was confirmed with an anti-PSMA antibody Alexa 647 conjugate (Novus Biologicals, Catalog #FAB4234R). For PSMA competition controls, PMPA was purchased from Sigma (SML1612). Hek-293T (PSMA+/−) cell lines were generously given by Dr. Cyril Barinka (Institute of Biotechnology CAS, Czech Republic). U937 cells were generously given by Dr. John Valliant (McMaster University, Canada). LNCaP cells were generously given by Dr. Karen Mossman (McMaster University, Canada). IFN-γ was purchased from Fischer Scientific (PHC4031). Ultra low IgG FBS was purchased from Fischer Scientific (A3381901). RPMI-1640 was purchased as a powder from Fischer Scientific (31800089) and resuspended. DMEM was purchased as a powder from Fischer Scientific (12800082) and resuspended. […]
For preparation of effector monocytes, 24 hours prior to inducing phagocytosis U937 monocytes were seeded at 500,000 cells/mL and activated with IFN-γ ([…]). After incubation, these cells were then counted and washed twice with serum free assay media (neat RPMI). […] These cells were then counted and washed twice with serum free assay media (neat RPMI). […]

## O=C(O)CC[C@H](NC(=O)N[C@@H](CCCCNC(=O)NCCOCCOCCOCCOCCOCCOCCOCCOC(=O)n1cnc(CCNC(=O)CNc2ccc([N+](=O)[O-])cc2[N+](=O)[O-])c1)C(=O)O)C(=O)O [CIR 3]
anti-DNP IgG; 200 nM CIR 3 + 100 nM anti-DNP IgG
  pseudo intramolecular complex labelling rate constant k=kobs/0.5: 0.51 h⁻¹
anti-DNP IgG; solution labelling, PSMA coated probes
  rate constant k2: 0.00014 s⁻¹
PSMA+HEK cells
  CD64 based target immune recognition (phagocytosis): only provided a functional enhancement relative to ARM 11 at low antibody concentrations
